In patent US8022036B2, “Use of thymosin alpha 1 for the treatment of immunological diseases” (Sigma-Tau Industrie Farmaceutiche Riunite S.p.A., priority 2006, dated 2011):
No end group written: not given here.

Legend:
[1] = system: lung homogenates, TLN CD4+ T cells; assay: Inflammatory/Th/T reg responses in lung and TLN of infected HSCT mice given DCs (ELISA, ELISPOT, RT-PCR, flow cytometry); assay type: in vivo, mouse
Procedure: Mice received twice intraperitoneal injections of DCs, at weekly interval, starting a day after HSCT and infected a week after the last DC administration. Three days later, lung homogenates, CD4+ T cells (>98% on FACS analysis), CD4+CD25− (>98%) or CD4+CD25+ (>82%) purified with the specific Miltenyi Biotec isolation kits were assessed for pattern of pro- and anti-inflammatory (TNF-a/IL-10 in lung homogenates), Th1 (IFN-γ) or Th2 (IL-4) cytokine production by CD4+ cells stimulated with Aspergillus-pulsed DCs (Blood. 2003; 102:3807-3814) frequency of CD25+ IL-10^+ TGF-β+ T reg cells, lymphoproliferation and gene expression by RT-PCR. For proliferation, TLN CD4+ T lymphocytes were plated (10^5 cells/well) with 10^5 cells/well irradiated allogeneic splenocytes or autologous spDCs pulsed with conidia or 10 μg/mL Con A for five days before H^3-thymidine labeling.
RNA extraction, synthesis and PCR of cDNA, sequences of gene-specific primers, annealing temperatures and amplification cycles were done as described in J. Immunol. 2006; 176:1712-1723). Amplification efficiencies were validated and normalized against GAPDH.
(A) TNF-a/IL-10 levels were assessed by specific ELISA in lung homogenates and IFN-γ/IL-4 production were assessed in TLN CD4+ T cells cocultured with Aspergillus-pulsed DCs. Bars indicate standard errors. TLN CD4+CD25+ T cells producing IL-10 or TGF-β were numbered by ELISPOT assay. Results are expressed as the mean number of cytokine-producing cells (±SE) per 2×10^5 cells. *P<0.05, DC-treated versus untreated mice. (**) P<0.05, Thymosin alpha 1-treated DCs versus untreated DCs.
(B) Total RNA was extracted from freshly purified CD4+ T cells from TLN of treated or untreated (None) mice. The expressions of the different mRNAs in each cell population were determined by RT-PCR. The expression of a housekeeping gene, Gapdh mRNA, was used as an internal control. The data shown are representative results of three experiments.
(C) Phenotypic analysis of cells isolated from lung or TLN of mice infused or not (None) with different types of DCs, (−) indicating uninfected, untreated mice. CD4+ T cells were sequentially reacted with PE-conjugated anti-CD25 (PC61) and FITC-conjugated anti-CD69 (clone H1.2F3) mAbs. Numbers represent the percentage of positive cells over total cells analyzed. Control staining of cells with irrelevant Ab was used to obtain background fluorescence values. Histograms are representative of one out of four independent experiments.

[2] = system: GM-DCs or FL-DCs; assay: Phagocytosis of Aspergillus conidia by human GM- or FL-DCs; assay type: cell-based
Excerpt: GM-DCs or FL-DCs were obtained from purified CD14+ monocytes from healthy donors or transplanted patients (1 month post-HSCT) cultured in Iscove's modified medium for 7-9 days, in the presence of rGM-CSF (Schering-Plough, Milan, Italy) and rIL-4 (Peprotech, Inalco, Milan, Italy) or FLT3-L (Immunex Corporation, Seattle, Wash.) (Blood. 2004; 103:4232-4239). DC recovery was between 20-30% reduced in cultures from transplanted patients. Murine GM-DCs or FL-DCs were obtained from bone marrow cells for 7-9 days, as described (Blood. 2004; 103:4232-4239). Thymosin alpha 1 and sThymosin alpha 1 were added to the cultures at 20 ng/mL. DCs (>99% CD11c+ consisting of 90-95% CD8-, 5-10% CD8+, and 1-5% B220+ cells) were purified from spleens (spDCs) by magnetic-activated sorting using CD11c MicroBeads and MidiMacs (Miltenyi Biotech). DC populations were further separated into CD8−, CD8+ and B220+ fractions by means of CD8 or B220 MicroBeads (Miltenyi Biotech). DCs were pulsed in serum-free Iscove medium for 24 hours with live unopsonized Aspergillus conidia or Zymosan from Saccharomyces cerevisiae (Sigma) or CpG-ODN 2006 as described.7 Phagocytosis was done as described (Blood. 2004; 103:4232-4239). Photographs were taken using a high Resolution Microscopy Color Camera AxioCam, using the AxioVision Software Rel. 3.1 (Carl Zeiss, Milan, Italy).
(B) Phagocytosis of conidia by GM- or FL-DCs exposed (+) or not (−) to Thymosin alpha 1 from seven recipients of Tcell depleted haploidentical HSCT. The data are the means±SE and expressed as % internalization (numbers within figures). (*) P<0.05, Thymosin alpha 1-treated versus untreated cells.

[3] = system: IDO; assay: IDO expression (immunoblotting) and kynurenine production in DCs; assay type: cell-based, mouse
Procedure: IDO expression and functional activity were assessed as described in Nat. Immunol. […] Generation, purification and activity of T reg cells Splenic CD4+ T-cells were cocultured with conidia-pulsed DCs for 5 days […] before flow cytometry or ELISPOT assay. 1-MT (Sigma-Aldrich) was used at […].
Cells were assessed for IDO protein expression by immunoblotting and for kynurenine production. Positive and negative controls consisted of IDO protein-expressing MC24 transfectants and mock-transfected MC22 cells, respectively (not shown in the figure).

[4] = system: CD4+ T cell clones; assay: Aspergillus-specific or alloreactive human T cell clones responding to DCs; assay type: cell-based; conditions: healthy donors or transplanted patients
Procedure: Aspergillus-specific human CD4+ T cell clones were generated from peripheral blood CD4+CD45RA+ T cells added at limiting dilution concentrations to irradiated (20 Gy) feeder autologous peripheral blood cells and stimulated with conidia-pulsed DCs or allogeneic DCs (Blood. 2005; 106:4397-4406). Growing clones were assessed for specificity against fungus-pulsed DCs, allogeneic DCs, autologous irradiated cells (as a negative control) and 0.5% phytohemoagglutinin (as a positive control) by H^3-thymidine (Amersham Biosciences, Little Chalfont, UK) labeling or cytokine content in supernatants 2 days later (Blood. 2005; 106:4397-4406).
(E) Frequency of Aspergillus-specific or alloreactive T cell clones responding to the different types of fungus-pulsed DCs or unpulsed DCs, respectively, from healthy donors or transplanted patients. Growing clones were assessed for specificity after 2 days of stimulation with DCs. (*) p<0.05, GM-DCs versus peripheral blood cells (−). (**) P<0.05, HSCT-DCs versus all other DCs. nd, not done.

[5] = mice given Thymosin alpha 1-treated GM-DCs

Substance: Thymosin alpha 1: naturally occurring thymic peptide; supplied as purified, endotoxin-free sterile lyophilized acetylated polypeptide from SciClone Pharmaceuticals (Ac-SDAAVDTSSEITTKDLKEKKEVVEEAEN; UniProt P06454 2-29, looked up)
- compartmentalization of induced T reg (lungs vs TLN), FL-DCs ([1]; Thymosin alpha 1-treated FL-DCs): the opposite was true
- TNF-a/IL-10 production in lung homogenates ([1]; Thymosin alpha 1-treated GM-DCs, compared with TNF-a high, IL-10 low in untreated or GM-DC mice): the reverse being true
- compartmentalization of induced T reg (lungs vs TLN), GM-DCs ([1]; Thymosin alpha 1 treated GM-DCs): induced T reg in the lungs more than TLN
- CD62L marker on CD25+ T cells [1, 5]: stained positive
- Foxp3 mRNA in TLN CD4+ T cells (RT-PCR) [1, 5]: expressed
- IFN-γ production by TLN CD4+ T cells [1, 5]: higher
- IL-4 production by TLN CD4+ T cells [1, 5]: lower
- CD69 activation marker on CD4+CD25+ T cells ([1]; mice given Thymosin alpha 1-treated GM-DCs or FL-DCs): did not stain positive
- phagocytosis of GM- and FL-DCs derived from patients ([2]; patients one month after transplantation): promoted the phagocytosis
- phagocytosis in GM-DCs ([2]; with Thymosin alpha 1 (from 30% without)): 56%
- phagocytosis in FL-DCs ([2]; with Thymosin alpha 1 (from 32% without)): 58%
- induction of IDO protein and function in DCs from TLR9-/- or IFN-aβR-/- mice ([3]; DCs from knockout mice): not observed
- induction of functional IDO (protein, tryptophan to kynurenine conversion) ([3]; FL-DCs and GM-DCs): Induction of functional IDO by Thymosin alpha 1 in both FL-DCs and GM-DCs was confirmed
- ability of DCs to activate fungus- or alloantigen-specific T cell reactivity [4]: modified neither the antigen-specific T cell responses induced by DCs nor the allostimulatory capacity
